Data taken from patent US20200361895A1, “NOVEL SULFONAMIDE CARBOXAMIDE COMPOUNDS” (Inflazome Limited, priority 2017, published 2020).
Structures can show the parent of a compound that is named as a salt.

Columns and labels:
NLRP3 [1] = target: T1, NLRP3 (Homo sapiens, UniProt Q96P20); experiment: THP-1 cells pyroptosis assay (LPS + nigericin, resazurin readout; THP IC50); format: cell-based; parameters: Seed THP-1 cells (25,000 cells/well) containing 1.0 μg/ml LPS in 40 μl of RPMI medium; host or cells: THP-1 cells
Procedure, shortened: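 Human THP-1 cells, 25,000/well in serum-free RPMI with 1 μg/ml LPS, treated 3 hrs at 37° C with compound (8-point half-log, 10 μM top, 0.1% DMSO), then 5 μM nigericin 1 hr. Viability by 100 μM resazurin fluorescence after 1-2 hrs; IC50 by 4-parameter fit.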

NLRP3 [2] = target: T1, NLRP3; experiment: Human whole blood IL1β release assay (LPS + nigericin, AlphaLisa IL-1β; HWB IC50); format: cell-based; parameters: Human whole blood in Li-heparin tubes was obtained from healthy donors from a volunteer donor panel; from tissue; host or cells: human whole blood from healthy donors; details: IL-1β release
Procedure, shortened: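 Donor Li-heparin whole blood primed with 1 μg/ml LPS, given compound (8-point half-log series, 10 μM top; DMSO 0.1% final) for 3 h at 37 °C, then nigericin 10 μM final for 1 h. Supernatant IL-1β measured by AlphaLisa; IC50 from 4-parameter variable-slope fit.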

T1 sequence (Q96P20 whole entry): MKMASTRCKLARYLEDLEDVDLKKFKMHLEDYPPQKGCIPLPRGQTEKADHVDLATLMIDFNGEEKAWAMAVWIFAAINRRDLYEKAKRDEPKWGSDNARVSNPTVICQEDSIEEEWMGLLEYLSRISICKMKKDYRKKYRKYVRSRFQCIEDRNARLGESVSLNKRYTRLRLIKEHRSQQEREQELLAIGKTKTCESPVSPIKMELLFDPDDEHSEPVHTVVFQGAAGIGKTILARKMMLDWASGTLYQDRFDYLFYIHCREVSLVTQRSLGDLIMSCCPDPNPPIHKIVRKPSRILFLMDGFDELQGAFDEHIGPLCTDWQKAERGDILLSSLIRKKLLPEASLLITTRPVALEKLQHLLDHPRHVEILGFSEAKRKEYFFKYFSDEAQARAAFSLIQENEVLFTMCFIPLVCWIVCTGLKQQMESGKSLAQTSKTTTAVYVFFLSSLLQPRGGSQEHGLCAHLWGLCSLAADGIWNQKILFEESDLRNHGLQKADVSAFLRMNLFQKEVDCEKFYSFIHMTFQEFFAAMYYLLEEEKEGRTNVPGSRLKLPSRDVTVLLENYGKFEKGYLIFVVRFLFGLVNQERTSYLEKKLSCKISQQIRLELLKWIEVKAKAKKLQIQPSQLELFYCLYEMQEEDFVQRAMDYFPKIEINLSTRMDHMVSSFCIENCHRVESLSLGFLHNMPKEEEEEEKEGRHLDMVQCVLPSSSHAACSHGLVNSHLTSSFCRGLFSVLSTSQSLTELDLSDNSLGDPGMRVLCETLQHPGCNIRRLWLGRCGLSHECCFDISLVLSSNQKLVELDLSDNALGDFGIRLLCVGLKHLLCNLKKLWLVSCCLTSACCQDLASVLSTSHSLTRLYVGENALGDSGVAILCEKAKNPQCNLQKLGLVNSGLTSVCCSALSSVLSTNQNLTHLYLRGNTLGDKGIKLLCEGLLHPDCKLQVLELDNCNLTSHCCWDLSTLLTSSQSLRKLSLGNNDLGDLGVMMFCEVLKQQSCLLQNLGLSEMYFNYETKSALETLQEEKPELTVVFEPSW

| SMILES | IC50 (NLRP3 [1]) | IC50 (NLRP3 [2]) |
| --- | --- | --- |
| COc1cc(-c2ccc3c(c2NC(=O)NS(=O)(=O)c2ccnc(C(C)C)c2)CCC3)ccn1 [Example 178, 2-Isopropyl-N-((5-(2-methoxypyridin-4-yl)-2,3-dihydro-1H-inden-4-yl)carbamoyl)pyridine-4-sulfonamide, sodium salt] | ≤ 0.5 µM | ≤ 5 µM |
| CC(C)n1ccc(S(=O)(=O)NC(=O)Nc2c(-c3cccnc3)ccc3c2CCCC3)n1 [Example 179, 1-Isopropyl-N-((2-(pyridin-3-yl)-5,6,7,8-tetrahydronaphthalen-1-yl)carbamoyl)-1H-pyrazole-3-sulfonamide] | ≤ 5 µM | ≤ 5 µM |
| C[C@@H](O)Cn1ccc(S(=O)(=O)NC(=O)Nc2c(-c3ccnc(C#N)c3)ccc3c2CCC3)n1 [Example 182, (R)-N-((5-(2-Cyanopyridin-4-yl)-2,3-dihydro-1H-inden-4-yl)carbamoyl)-1-(2-hydroxypropyl)-1H-pyrazole-3-sulfonamide, sodium salt] | ≤ 0.5 µM | ≤ 0.5 µM |
| CC(C)(O)Cn1ccc(S(=O)(=O)NC(=O)Nc2c(-c3ccnc(C#N)c3)ccc3c2CCC3)n1 [Example 183, N-((5-(2-Cyanopyridin-4-yl)-2,3-dihydro-1H-inden-4-yl)carbamoyl)-1-(2-hydroxy-2-methylpropyl)-1H-pyrazole-3-sulfonamide, sodium salt] | ≤ 0.5 µM | ≤ 0.5 µM |
| COc1cc(-c2ccc3c(c2NC(=O)NS(=O)(=O)c2cc(C4(OC)COC4)n(C)n2)CCC3)ccn1 [Example 188, 5-(3-Methoxyoxetan-3-yl)-N-((5-(2-methoxypyridin-4-yl)-2,3-dihydro-1H-inden-4-yl)carbamoyl)-1-methyl-1H-pyrazole-3-sulfonamide] | ≤ 0.5 µM | ≤ 0.5 µM |
| COc1cc(-c2ccc3c(c2NC(=O)NS(=O)(=O)c2cc(C4CCCN4C)n(C(C)C)n2)CCC3)ccn1 (centres unmarked) [Example 191, 1-Isopropyl-N-((5-(2-methoxypyridin-4-yl)-2,3-dihydro-1H-inden-4-yl)carbamoyl)-5-(1-methylpyrrolidin-2-yl)-1H-pyrazole-3-sulfonamide, sodium salt] | ≤ 0.5 µM | ≤ 1 µM |
| CCC(c1cc(S(=O)(=O)NC(=O)Nc2c(-c3ccnc(OC)c3)ccc3c2CCC3)nn1C(C)C)N(C)C (centres unmarked) [Example 192, 5-(1-(Dimethylamino)propyl)-1-isopropyl-N-((5-(2-methoxypyridin-4-yl)-2,3-dihydro-1H-inden-4-yl)carbamoyl)-1H-pyrazole-3-sulfonamide] | ≤ 0.5 µM | ≤ 0.5 µM |
| COc1cc(-c2ccc3c(c2NC(=O)NS(=O)(=O)c2cc(CN(C)C)n(C(C)C)n2)CCC3)ccn1 [Example 193, 5-((Dimethylamino)methyl)-1-isopropyl-N-((5-(2-methoxypyridin-4-yl)-2,3-dihydro-1H-inden-4-yl)carbamoyl)-1H-pyrazole-3-sulfonamide] | ≤ 0.5 µM | ≤ 0.5 µM |
| CC(C)(C#N)n1ccc(S(=O)(=O)NC(=O)Nc2c(-c3ccnc(OC(F)F)c3)ccc3c2CCO3)n1 [Example 195, 1-(2-Cyanopropan-2-yl)-N-((5-(2-(difluoromethoxy)pyridin-4-yl)-2,3-dihydrobenzofuran-4-yl)carbamoyl)-1H-pyrazole-3-sulfonamide] | ≤ 0.5 µM | ≤ 0.5 µM |
| COc1cc(-c2ccc3c(c2NC(=O)NS(=O)(=O)c2ccn(C(C)(C)C#N)n2)CCO3)ccn1 [Example 196, 1-(2-Cyanopropan-2-yl)-N-((5-(2-methoxypyridin-4-yl)-2,3-dihydrobenzofuran-4-yl)carbamoyl)-1H-pyrazole-3-sulfonamide] | ≤ 0.5 µM | ≤ 0.5 µM |
| CN(C)CC(C)(C)n1ccc(S(=O)(=O)NC(=O)Nc2c(-c3ccnc(OC4CC4)c3)ccc3c2CCO3)n1 [Example 198, N-((5-(2-Cyclopropoxypyridin-4-yl)-2,3-dihydrobenzofuran-4-yl)carbamoyl)-1-(1-(dimethylamino)-2-methylpropan-2-yl)-1H-pyrazole-3-sulfonamide, sodium salt] | ≤ 0.5 µM | ≤ 0.5 µM |
| CN(C)CC(C)(C)n1ccc(S(=O)(=O)NC(=O)Nc2c(-c3ccnc(OC4CC4)c3)ccc3c2CCC3)n1 [Example 200, N-((5-(2-Cyclopropoxypyridin-4-yl)-2,3-dihydro-1H-inden-4-yl)carbamoyl)-1-(1-(dimethylamino)-2-methylpropan-2-yl)-1H-pyrazole-3-sulfonamide, sodium salt] | ≤ 0.5 µM | ≤ 0.5 µM |
| CN(C)CC(C)(C)n1ccc(S(=O)(=O)NC(=O)Nc2c(-c3ccnc(C#N)c3)ccc3c2CCC3)n1 [Example 202, N-((5-(2-Cyanopyridin-4-yl)-2,3-dihydro-1H-inden-4-yl)carbamoyl)-1-(1-(dimethylamino)-2-methylpropan-2-yl)-1H-pyrazole-3-sulfonamide] | ≤ 0.5 µM | ≤ 0.5 µM |
| CN(C)CC(C)(C)n1ccc(S(=O)(=O)NC(=O)Nc2c(-c3cccnc3)ccc3c2CCC3)n1 [Example 203, 1-(1-(Dimethylamino)-2-methylpropan-2-yl)-N-((5-(pyridin-3-yl)-2,3-dihydro-1H-inden-4-yl)carbamoyl)-1H-pyrazole-3-sulfonamide] | ≤ 0.5 µM | ≤ 0.5 µM |

Continued, values first:

| IC50 (NLRP3 [1]) | IC50 (NLRP3 [2]) | SMILES |
| --- | --- | --- |
| ≤ 0.5 µM | ≤ 0.5 µM | COc1cc(-c2ccc3c(c2NC(=O)NS(=O)(=O)c2ccn(C(C)(C)CN4CC(OC)C4)n2)CCC3)ccn1 [Example 180, 1-(1-(3-Methoxyazetidin-1-yl)-2-methylpropan-2-yl)-N-((5-(2-methoxypyridin-4-yl)-2,3-dihydro-1H-inden-4-yl)carbamoyl)-1H-pyrazole-3-sulfonamide] |
| ≤ 0.5 µM | ≤ 0.5 µM | N#Cc1cc(-c2ccc3c(c2NC(=O)NS(=O)(=O)c2ccn(C4CCOC4)n2)CCC3)ccn1 (centres unmarked) [Example 181, N-((5-(2-Cyanopyridin-4-yl)-2,3-dihydro-1H-inden-4-yl)carbamoyl)-1-(tetrahydrofuran-3-yl)-1H-pyrazole-3-sulfonamide, sodium salt] |
| ≤ 0.5 µM | ≤ 0.5 µM | COc1cc(-c2ccc3c(c2NC(=O)NS(=O)(=O)c2ccn(C[C@@H](C)O)n2)CCC3)ccn1 [Example 184, (R)-1-(2-Hydroxypropyl)-N-((5-(2-methoxypyridin-4-yl)-2,3-dihydro-1H-inden-4-yl)carbamoyl)-1H-pyrazole-3-sulfonamide] |
| ≤ 0.5 µM | ≤ 0.5 µM | COc1cc(-c2ccc3c(c2NC(=O)NS(=O)(=O)c2ccn(CC(C)(C)OC)n2)CCC3)ccn1 [Example 185, 1-(2-Methoxy-2-methylpropyl)-N-((5-(2-methoxypyridin-4-yl)-2,3-dihydro-1H-inden-4-yl)carbamoyl)-1H-pyrazole-3-sulfonamide] |
| ≤ 0.5 µM | ≤ 0.5 µM | COc1cc(-c2ccc3c(c2NC(=O)NS(=O)(=O)c2ccn(CC(C)(C)O)n2)CCC3)ccn1 [Example 186, 1-(2-Hydroxy-2-methylpropyl)-N-((5-(2-methoxypyridin-4-yl)-2,3-dihydro-1H-inden-4-yl)carbamoyl)-1H-pyrazole-3-sulfonamide] |
| ≤ 0.5 µM | ≤ 0.5 µM | COc1cc(-c2ccc3c(c2NC(=O)NS(=O)(=O)c2ccn(C4CCOC4)n2)CCC3)ccn1 (centres unmarked) [Example 187, N-((5-(2-Methoxypyridin-4-yl)-2,3-dihydro-1H-inden-4-yl)carbamoyl)-1-(tetrahydrofuran-3-yl)-1H-pyrazole-3-sulfonamide] |
| ≤ 0.5 µM | ≤ 0.5 µM | COc1cc(-c2ccc3c(c2NC(=O)NS(=O)(=O)c2ccn(C(C)(C)C(=O)N(C)C)n2)CCC3)ccn1 [Example 189, 2-(3-(N-((5-(2-Methoxypyridin-4-yl)-2,3-dihydro-1H-inden-4-yl)carbamoyl)sulfamoyl)-1H-pyrazol-1-yl)-N,N,2-trimethylpropanamide] |
| ≤ 0.5 µM | ≤ 0.5 µM | CNCc1cc(S(=O)(=O)NC(=O)Nc2c(-c3ccnc(OC)c3)ccc3c2CCC3)nn1C1CC1 [Example 190, 1-Cyclopropyl-N-((5-(2-methoxypyridin-4-yl)-2,3-dihydro-1H-inden-4-yl)carbamoyl)-5-((methylamino)methyl)-1H-pyrazole-3-sulfonamide, sodium salt] |
| ≤ 0.5 µM | ≤ 0.5 µM | CNCC(C)(C)n1ccc(S(=O)(=O)NC(=O)Nc2c(-c3ccnc(OC)c3)ccc3c2CCC3)n1 [Example 197, N-((5-(2-Methoxypyridin-4-yl)-2,3-dihydro-1H-inden-4-yl)carbamoyl)-1-(2-methyl-1-(methylamino)propan-2-yl)-1H-pyrazole-3-sulfonamide, sodium salt] |
| ≤ 0.5 µM | ≤ 0.5 µM | COc1cc(-c2ccc3c(c2NC(=O)NS(=O)(=O)c2ccn(C4CCN(C)C4)n2)CCC3)ccn1 (centres unmarked) [Example 199, N-((5-(2-Methoxypyridin-4-yl)-2,3-dihydro-1H-inden-4-yl)carbamoyl)-1-(1-methylpyrrolidin-3-yl)-1H-pyrazole-3-sulfonamide, sodium salt] |
| ≤ 0.5 µM | ≤ 0.5 µM | COc1cc(-c2ccc3c(c2NC(=O)NS(=O)(=O)c2ccn(C(C)(C)C#N)n2)CCC3)ccn1 [Example 201, 1-(2-Cyanopropan-2-yl)-N-((5-(2-methoxypyridin-4-yl)-2,3-dihydro-1H-inden-4-yl)carbamoyl)-1H-pyrazole-3-sulfonamide, sodium salt] |
